# Source: US20230391727A1, “ANALOGUES OF PENTAMIDINE AND METHODS FOR TREATING INFECTIONS” (Auransa Inc., priority 2020, published 2023)
# Values joined by “and” are separate entries in the source; they are usually repeats but may differ in a detail not shown here. Equal values may be shown once.
# Experiments:
# Type in all cases: cell-based
# [1] = test system: A. baumannii (ATCC 17978); experiment: Checkerboard/MIC assay with rifampicin; details: Acinetobacter baumannii ATCC 17978
# Description: (§1) The 17 test strains/isolates were: (1) Serratia marcescens (ATCC 13880); (2) Salmonella typhimurium (ATCC 13311); (3) Salmonella choleraesuis (ATCC 10708); (4) Acinetobacter baumannii (ATCC BAA-1605); (5) A. baumannii (ATCC 17978); (6) A. baumannii (FDA-CDC AR-BANK#0088); (7) Citrobacter freundii (ATCC 8090); (8) Pseudomonas aeruginosa (BCCM 27647); (9) P. aeruginosa (BCCM 27648); (10) Escherichia coli (ATCC 25922); (11) E. coli (ATCC 10536); (12) Stenotrophomonas maltophilia (ATCC 13637); (13) Enterobacter cloacae (ATCC BAA-1143); (14) E. cloacae (ATCC 13047); (15) E. aerogenes (ATCC 13048); (16) Klebsiella pneumoniae (NCTC 13438); and (17) Klebsiella pneumoniae (FDA-CDC AR-BANK#0160). These bacterial strains were obtained from the American Type Culture Collection (ATCC, Rockville, MD, USA); Belgian Coordinated Collections of Microorganisms; The Culture Collections of Public Health England, UK; and FDA-CDC anticimrobial Resistance Isolate Bank, USA, and cryopreserved as single-use frozen working stock cultures which were stored at −80° C.
# (§2) The 17 test strains were grown on nutrient agar or tryptic soy agar (TSA) medium as below. Colonies were suspended in phosphate buffered saline (PBS) pH 7.4. The absorbance of the bacterial suspension was measured with a spectrophotometer at OD620nm, and then the suspension was adjusted to 1-2×10^8 CFU/mL in PBS. The adjusted suspension was further diluted 1:500 in cation-adjusted Mueller-Hinton Broth. Each well contained approximately 5×10^5 CFU/mL. […] The testing inoculum was prepared within minutes before adding to wells of the test plate.
# (§3) Compound 3 was tested in 8 points by two-fold serial titrations from 100 to 0.78 μg/mL. […] Assay plates were incubated and MIC endpoints were read as complete inhibition of visual growth. The checkerboard combination analysis was performed following the MIC testing protocol to identify potential synergistic, indifferent or antagonistic interactions. The analysis also included each test substance alone at the same concentration ranges.
# (§4) FIC (Fraction Inhibitory Concentration) and FIC Index (FICI) values for each test condition and the average of FICI values of all pairwise combinations were calculated to determine if synergy or antagonism existed between the two substances. The FIC index was determined by calculating the sum of the ratios of MICs (minimum inhibitory concentrations) for both substances. […] Synergy is defined as the FICI (Σ)≤0.5; additivity or indifference are defined as the FICI (Σ)>0.5 to ≤4; antagonism is defined as the FICI (Σ)>4. The two fold of highest test article concentration was used for FIC value calculations in the circumstances where MIC values were greater than the highest test article concentration.
# [2] = test system: A. baumannii (FDA-CDC AR-BANK#0088); experiment: Checkerboard/MIC assay with rifampicin; details: Acinetobacter baumannii AR-BANK 0088
# Description: as §1, §2, §3, §4
# [3] = test system: 17 clinically relevant bacterial strains; experiment: Checkerboard assays with rifampicin, summary over the panel; details: compound 3 in combination of rifampicin; 17 test strains
# Description: The 17 test strains/isolates were: (1) Serratia marcescens (ATCC 13880); (2) Salmonella typhimurium (ATCC 13311); (3) Salmonella choleraesuis (ATCC 10708); (4) Acinetobacter baumannii (ATCC BAA-1605); (5) A. baumannii (ATCC 17978); (6) A. baumannii (FDA-CDC AR-BANK#0088); (7) Citrobacter freundii (ATCC 8090); (8) Pseudomonas aeruginosa (BCCM 27647); (9) P. aeruginosa (BCCM 27648); (10) Escherichia coli (ATCC 25922); (11) E. coli (ATCC 10536); (12) Stenotrophomonas maltophilia (ATCC 13637); (13) Enterobacter cloacae (ATCC BAA-1143); (14) E. cloacae (ATCC 13047); (15) E. aerogenes (ATCC 13048); (16) Klebsiella pneumoniae (NCTC 13438); and (17) Klebsiella pneumoniae (FDA-CDC AR-BANK#0160). […]
# The 17 test strains were grown on nutrient agar or tryptic soy agar (TSA) medium as below. […] The absorbance of the bacterial suspension was measured with a spectrophotometer at OD620nm, and then the suspension was adjusted to 1-2×10^8 CFU/mL in PBS. […] The actual microbial count in the assay ranged from 2˜8×10^5 CFU/mL as determined from dilution plating. […]
# Assay plates were incubated and MIC endpoints were read as complete inhibition of visual growth. […]
# FIC (Fraction Inhibitory Concentration) and FIC Index (FICI) values for each test condition and the average of FICI values of all pairwise combinations were calculated to determine if synergy or antagonism existed between the two substances. […]
# [4] = test system: human primary hepatocytes; experiment: alamarBlue cell viability, cytotoxicity in hepatocytes; details: 24 hours
# Procedure: Compound 3 was tested for cytotoxicity in human primary hepatocytes in duplicate at 8 concentrations ranging from 0.03 μM to 100 μM (0.013 μg/ml to 44.95 μg/ml ).
# This assay was performed using cryopreserved human primary hepatocytes (PHH). The cryopreserved PHH were seeded in collagen I coated 96-well plates in plating medium. The medium was replaced with incubation medium 2-4 hours after seeding. After overnight culture, test compound (compound 3) (0.03, 0.1, 0.3, 1, 3, 10, 30, 100 μM), reference compound (chlorpromazine) and vehicle control (1% DMSO) were added, and incubated with the cells for 24 hours followed by the addition of the alamarBlue cell viability reagent. The plates are analyzed for fluorescent intensity after alamarBlue addition. % of cell viability (% of control) was calculated by comparing the background (wells without cells) corrected fluorescent intensity in the compound treated wells and vehicle control treated wells. IC50 values were determined by non-linear regression analysis of the concentration-response curves using the Hill equation. Testing was done in duplicate.
# [5] = compound 3 in combination with rifampicin
structure (smiles),measurement,setting,value
"N=C(N)c1ccc(CC[C@H]2CCC[C@@H](CCc3ccc(C(=N)N)cc3)C2)cc1 [Compound 3, 4,4′-(2,2′-((1R,3S)-cyclohexane-1,3-diyl)bis(ethane-2,1-diyl))dibenzimidamide]",MIC,"[1]; ATCC17978, substance alone",25 µg/mL
same,Combination Result,[1]; [5],synergy (Synergy is defined as the FICI (Σ)≤0.5)
same,FICI (Average),[1]; [5],0.27
same,Combination Result,[2]; [5],synergy (Synergy is defined as the FICI (Σ)≤0.5)
same,FICI (Average),[2]; [5],0.31
same,MIC,[2]; substance alone,25 µg/mL
same,combination effect with rifampicin,[3],synergistic effects for most tested strains
same,effect on cell viability,[4]; 10 μM (4.49 μg/ml) and lower concentrations,No inhibition on cell viability
same,effect on cell viability,[4]; 30 uM and 100 μM (13.48 μg/ml and 44.95 μg/ml),significant effects on cell viability
same,IC50,"[4]; Hepatocyte, human primary hepatocytes",25 µM and 11.2 µg/mL
